From ChEMBL document CHEMBL3751722, “Discovery of C-shaped aurone human neutrophil elastase inhibitors” (Medchemcomm, 2015)
pEC50, pIC50: −log10 of the molar value.

How the values were obtained:
[1] = system: HEK293; assay: Cytotoxicity against HEK293 cells; conditions: Homo sapiens
[2] = target: T1, Neutrophil elastase (Homo sapiens, UniProt P08246); assay: Inhibition of human neutrophil elastase pre-incubated for 30 mins before MeO-Suc-Ala-Ala-Pro-Val-AMC substrate addition by fluorometric assay
T1 sequence (P08246 whole entry): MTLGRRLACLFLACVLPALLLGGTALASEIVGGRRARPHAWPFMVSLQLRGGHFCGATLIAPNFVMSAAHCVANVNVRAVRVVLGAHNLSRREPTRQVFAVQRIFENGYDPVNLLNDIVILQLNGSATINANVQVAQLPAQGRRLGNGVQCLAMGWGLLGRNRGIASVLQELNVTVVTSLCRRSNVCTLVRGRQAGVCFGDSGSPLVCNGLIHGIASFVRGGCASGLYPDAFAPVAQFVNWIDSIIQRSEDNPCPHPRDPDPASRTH

[3] = Selectivity index, ratio of cytotoxic EC50 for HEK293 cells to IC50 for human neutrophil elastase

Structure (SMILES) | pEC50 [1] | pIC50 [2] | Selectivity Index [3]
O=C1/C(=C/c2cccc(-c3ccccc3)c2)Oc2ccccc21 | < 4.00 |  | 
O=Cc1ccc(-c2cccc(/C=C3\Oc4ccccc4C3=O)c2)cc1 | < 4.00 |  | 
O=C1/C(=C/c2ccc(-c3ccccc3)cc2)Oc2ccccc21 | < 4.00 |  | 
Cc1ccc(Oc2ccc(/C=C3\Oc4cc(O)ccc4C3=O)cc2)cc1 | < 4.00 |  | 
O=C1/C(=C/c2ccc(Oc3ccc(Cl)cc3)cc2)Oc2cc(O)ccc21 | < 4.00 |  | 
Cc1ccc(Oc2ccc(/C=C3\Oc4ccccc4C3=O)cc2)cc1 | < 4.00 | < 5.00 | >20
O=C1/C(=C/c2ccc(-c3ccc(Cl)cc3)cc2)Oc2ccccc21 | < 4.00 |  | 
O=C1/C(=C/c2ccccc2Br)Oc2ccccc21 | < 4.00 |  | 
O=C1/C(=C/c2ccc(Br)cc2)Oc2ccccc21 | < 4.00 |  | 
CN(C)c1ccc(/C=C2\Oc3cc(O)ccc3C2=O)cc1 | < 4.00 | 5.29 | >20
O=C1/C(=C/c2ccc(-c3ccc(F)cc3)cc2)Oc2ccccc21 | < 4.00 |  | 
O=C1/C(=C/c2ccc(Oc3ccc(Cl)cc3)cc2)Oc2ccccc21 | < 4.00 |  | 
O=Cc1ccc(-c2ccc(/C=C3\Oc4ccccc4C3=O)cc2)cc1 | < 4.00 |  | 
CN(C)c1ccc(/C=C2\Oc3ccccc3C2=O)cc1 | < 4.00 | 5.54 | >20
COc1cccc2c1O/C(=C\c1ccccc1)C2=O | < 4.00 |  | 
O=C1/C(=C/c2ccc(Cc3ccccc3)cc2)Oc2ccccc21 | < 4.00 |  | 
Nc1ccc(-c2ccc(/C=C3\Oc4ccccc4C3=O)cc2)cn1 | < 4.00 |  | 
O=C1/C(=C/c2cccc(-c3cnc4ccccc4c3)c2)Oc2ccccc21 | < 4.00 |  | 
O=C1/C(=C/c2ccc(-c3cnc4ccccc4c3)cc2)Oc2ccccc21 | < 4.00 |  | 
O=C1/C(=C/c2cccc(Cc3ccccc3)c2)Oc2ccccc21 | < 4.00 |  | 
O=C1/C(=C/c2ccc(Nc3ccccc3)cc2)Oc2ccccc21 | < 4.00 |  | 
O=C1/C(=C/c2cccc(-c3ccc(Cl)cc3)c2)Oc2ccccc21 | < 4.00 |  | 
O=C1/C(=C/c2cccc(Br)c2)Oc2ccccc21 | < 4.00 | < 5.00 | >20
O=C1/C(=C/c2ccccc2)Oc2cc(O)ccc21 | < 4.00 |  | 
O=C1/C(=C/c2ccc(NCc3ccccc3)cc2)Oc2ccccc21 | < 4.00 |  | 
